Laboratory results published in US8097440B1, “Engineered microorganisms capable of producing target compounds under anaerobic conditions” (Gevo, Inc., priority 2008, dated 2012).
Where a chain is given by its changes, count along the chain named.

Experiments:
[1] = biological target: T1, E. coli KARI Ec_IlvC variant Ec_IlvC^2H10-his6 (A71S, R76D, S78D, Q110A), SEQ ID NO: 31 (Escherichia coli, UniProt P05793, A71S/Q110A/R76D/S78D); assay: KARI assay, purified Ec_IlvC^2H10-his6; assay type: biochemical; settings: acetolactate as substrate
T1 construct: T37 values cited for the gene on pGV1976
T1 sequence (P05793 with tags, fused parts or gaps A71S/R76D/S78D/Q110A): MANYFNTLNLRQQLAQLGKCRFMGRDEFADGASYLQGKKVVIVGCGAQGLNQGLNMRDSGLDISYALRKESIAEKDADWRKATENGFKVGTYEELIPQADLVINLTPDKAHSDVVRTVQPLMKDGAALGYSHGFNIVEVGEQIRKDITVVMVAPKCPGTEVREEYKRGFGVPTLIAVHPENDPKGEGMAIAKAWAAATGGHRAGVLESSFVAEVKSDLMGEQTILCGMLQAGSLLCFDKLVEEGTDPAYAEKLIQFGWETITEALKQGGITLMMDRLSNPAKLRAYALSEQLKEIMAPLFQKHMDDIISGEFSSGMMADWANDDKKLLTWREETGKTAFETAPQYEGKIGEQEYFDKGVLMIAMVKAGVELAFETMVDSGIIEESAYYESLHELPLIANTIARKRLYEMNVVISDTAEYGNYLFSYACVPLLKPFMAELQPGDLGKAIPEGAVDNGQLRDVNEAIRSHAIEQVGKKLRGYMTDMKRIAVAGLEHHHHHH
Method: KARI cuvette assay: KARI activity was assayed kinetically by monitoring the decrease in NAD(P)H concentration by measuring the absorbance at 340 nm. A reaction buffer was prepared containing 250 mM potassium phosphate pH 7, 1 mM DTT and 10 mM MgCl2. Cell pellets were resuspended (0.25 g wet weight/mL buffer) in 250 mM potassium phosphate (KPi) buffer containing 1 mM DTT and 10 mM MgCl2. The resuspended cells were lysed by sonication for 1 min with a 50% duty cycle and pelleted at 11000×g and 4° C. for 15 min. A reaction mixture consisting of 910 μl reaction buffer, 50 μl acetolactate, and 20 μl lysate was prepared in a cuvette. […]
Only 20% of the enzymes of the recombination library were active on NADH. After screening 1,000 clones using the NADH depletion assay at 340 nm, 26 KARI variants were selected for a rescreen by the high-throughput assay described in Example 14 and eight thereof were expressed in 25 ml LBamp medium in shake flasks according to the protocol for cell growth and protein expression in shake flasks as described in Example 14, purified according to the protocol for purification of KARI enzymes as described in Example 14, and NAD(P)H depletion at 340 nm was measured again. […] The KM values of variants Ec_llvC^2H10-his6 and Ec_llvC^6E6-his6 were measured and the catalytic efficiencies were calculated.

[2] = biological target: T2, E. coli KARI Ec_IlvC variant Ec_IlvC^Q110V-his6 (Q110V), SEQ ID NO: 23 (Escherichia coli, UniProt P05793, Q110V); assay: KARI cuvette assay, purified Ec_IlvC^Q110V-his6; assay type: biochemical; settings: relative to Ec_IlvC^his6 with NADPH
T2 sequence (P05793 with tags, fused parts or gaps Q110V): T1 sequence (P05793 with tags, fused parts or gaps A71S/R76D/S78D/Q110A) with S71A, D76R, D78S, A110V
Method: KARI cuvette assay: KARI activity was assayed kinetically by monitoring the decrease in NAD(P)H concentration by measuring the absorbance at 340 nm. A reaction buffer was prepared containing 250 mM potassium phosphate pH 7, 1 mM DTT and 10 mM MgCl2. Cell pellets were resuspended (0.25 g wet weight/mL buffer) in 250 mM potassium phosphate (KPi) buffer containing 1 mM DTT and 10 mM MgCl2. The resuspended cells were lysed by sonication for 1 min with a 50% duty cycle and pelleted at 11000×g and 4° C. for 15 min. A reaction mixture consisting of 910 μl reaction buffer, 50 μl acetolactate, and 20 μl lysate was prepared in a cuvette. The reaction was initiated by addition of 20 μL of 10 mM NAD(P)H. A substrate free control was conducted using reaction buffer without the addition of acetolactate.
Purification of KARI: Cell pellets used for purification were resuspended in purification buffer A (20 mM Tris, 20 mM imidazol, 100 mM NaCl, 10 mM MgCl2, pH 7.4). KARI was purified by IMAC (Immobilized metal affinity chromatography) over a 1 ml Histrap High Performance (histrap HP) column pre-charged with Nickel (GE Healthcare) using an Akta FPLC system (GE Healthcare). […]

NC(=O)C1=CN([C@@H]2O[C@H](COP(=O)(O)OP(=O)(O)OC[C@H]3O[C@@H](n4cnc5c(N)ncnc54)[C@H](O)[C@@H]3O)[C@@H](O)[C@H]2O)C=CC1 [NADH, nicotinamide adenine dinucleotide]
kcat/KM [1]: 60,322 M^−1 * s^−1 | (kcat/KM with NADH)/(kcat/KM of Ec_IlvC^his6 with NADPH) [2]: 28%
